Results reported in US9266832B2, “Compounds for the treatment of neurodegenerative diseases” (Katholieke Universiteit Levun, priority 2010, dated 2016).

System: M17-TAU P301L cells
Test: Tau-induced toxicity experiment: LDH leakage of retinoic acid incubated M17-TAU P301L cells
Assay type: cell-based
Conditions: Homo sapiens, Neuroblastoma cell, 168 h; reduction of LDH activity of retinoic acid incubated M17-TAU P301L neuroblastoma cells, 7 days
Description: A TAU expression plasmid was constructed by sub-cloning the cDNA of human TAU-P301L (encoding for TAU with proline 301 substituted by a leucine residue) into mammalian expression vector pcDNA3.1 resulting in plasmid pcDNA3.1-TAU P301L. Plasmids pcDNA3.1 and pcDNA3.1-TAU P301L were transfected to human neuroblastoma cells ([…]; ATCC No. CRL-2267) and independent clonal lines with the plasmids stably integrated into the genome were selected. […] Expression of the TAU P301L genes in the cell lines was confirmed by Western analysis.
In degenerated or dead cells lactate dehydrogenase (LDH) is leaked out of the cells into the extracellular environment due to a loss of plasma-membrane integrity. This principle was used to determine cytotoxicity by quantifying the level of leaked LDH into the growth medium.
The detailed method for determining TAU cytotoxicity was as follows: From appropriate precultures of M17-3.1 and M17-TAU(P301L) cells were seeded at 2500 cells/cm2 in Optimem Reduced Serum without phenol red (Gibco, Cat. 31985-047) supplemented with 1% fetal calf serum, 1 mM sodium pyruvate, 1× non-essential amino acids, 500 μg/ml G418 0.5× antibiotic/antimycotic. After 3 h of incubation at 37° C./5% CO2 1 volume of Optimem Reduced Serum (same as described above; except without fetal calf serum) supplemented with 2.5 μM retinoic acid (RA) was added. The cells were further incubated for 7 days. Subsequently, LDH activity was determined using Promega Cytotox 96 Non-Radioactive cytotoxicity assay, (Cat. G1780) according the supplier's instructions.
The M17-TAU P301L cell line made it possible to assess the ability of novel compounds to counteract TAU cytotoxicity. […] These measurements were used to calculate EC50 values of table 2.

Row | Structure (SMILES) | EC50
1 | O=C(NCCc1c[nH]c2ccc(Cl)cc12)c1cccc(Cc2ccccc2F)c1 [Cpd054, N-(2-(5-chloro-1H-indol-3-yl)ethyl)-3-(2-fluorobenzyl)benzamide] | 42 nM
2 | O=C(NCCc1c[nH]c2ccc(C(F)(F)F)cc12)c1ccc(Cc2cccc(F)c2)cc1 [Cpd108, 4-(3-fluorobenzyl)-N-(2-(5-(trifluoromethyl)-1H-indol-3-yl)ethyl)benzamide] | 320 nM
3 | O=C(NCCc1c[nH]c2ccc(Cl)cc12)c1ccc(Cc2ccccc2F)cc1 [Cpd049, N-(2-(5-chloro-1H-indol-3-yl)ethyl)-4-(2-fluorobenzyl)benzamide] | 31 nM
4 | O=C(NCCc1c[nH]c2ccc(Cl)cc12)c1ccc(Cc2ccccc2)cc1 [Cpd015, 4-benzyl-N-(2-(5-chloro-1H-indol-3-yl)ethyl)benzamide] | 154 nM
5 | COc1cccc(Oc2cccc(C(=O)NCCc3c[nH]c4ccc(Cl)cc34)c2)c1 [Cpd089, N-(2-(5-chloro-1H-indol-3-yl)ethyl)-3-(3-methoxyphenoxy)benzamide] | 98 nM
6 | O=C(NCCc1c[nH]c2ccc(Cl)cc12)c1ccc(Nc2ccccc2)cc1 [Cpd092, N-(2-(5-chloro-1H-indol-3-yl)ethyl)-4-(phenylamino)benzamide] | 76 nM
7 | O=C(NCCc1c[nH]c2ccc(Cl)cc12)c1ccc(CNCc2cccs2)cc1 [Cpd026, N-(2-(5-chloro-1H-indol-3-yl)ethyl)-4-((thiophen-2-ylmethylamino)methyl)benzamide] | 83 nM
8 | O=C(NCCc1c[nH]c2ccc(Cl)cc12)c1ccc(Cc2ccsc2)cc1 [Cpd080, N-(2-(5-chloro-1H-indol-3-yl)ethyl)-4-(thiophen-3-ylmethyl)benzamide] | 18 nM
9 | O=C(NCCc1c[nH]c2ccc(Cl)cc12)c1cccc(Cc2cncc(F)c2)c1 [Cpd069, N-(2-(5-chloro-1H-indol-3-yl)ethyl)-3-((5-fluoropyridin-3-yl)methyl)benzamide] | 90 nM
10 | COc1ccc(Cc2ccc(C(=O)NCCc3c[nH]c4ccc(Cl)cc34)cc2)cc1 [Cpd056, N-(2-(5-chloro-1H-indol-3-yl)ethyl)-4-(4-methoxybenzyl)benzamide] | 70 nM
11 | O=C(NCCc1c[nH]c2ccc(Cl)cc12)c1ccc(Cc2cccc(F)c2)cn1 [Cpd107, N-(2-(5-chloro-1H-indol-3-yl)ethyl)-5-(3-fluorobenzyl)picolinamide] | 26 nM
12 | Cc1cccc(C)c1Cc1ccc(C(=O)NCCc2c[nH]c3ccc(Cl)cc23)cc1 [Cpd062, N-(2-(5-chloro-1H-indol-3-yl)ethyl)-4-(2,6-dimethylbenzyl)benzamide] | 398 nM
13 | Cc1ccc(Cc2ccc(C(=O)NCCc3c[nH]c4ccc(Cl)cc34)cc2)cc1 [Cpd033, N-(2-(5-chloro-1H-indol-3-yl)ethyl)-4-(4-methylbenzyl)benzamide] | 31 nM
14 | CN(c1ccccc1)c1cccc(C(=O)NCCc2c[nH]c3ccc(Cl)cc23)c1 [Cpd097, N-(2-(5-chloro-1H-indol-3-yl)ethyl)-3-(methyl(phenyl)amino)benzamide] | 270 nM
15 | O=C(NCCc1c[nH]c2ccc(Cl)cc12)c1cccc(Cn2cccn2)c1 [Cpd006, 3-((1H-pyrazol-1-yl)methyl)-N-(2-(5-chloro-1H-indol-3-yl)ethyl)benzamide] | 256 nM
16 | N#Cc1ccccc1Cc1cccc(C(=O)NCCc2c[nH]c3ccc(Cl)cc23)c1 [Cpd060, N-(2-(5-chloro-1H-indol-3-yl)ethyl)-3-(2-cyanobenzyl)benzamide] | 116 nM
17 | O=C(NCCc1c[nH]c2ccc(Cl)cc12)c1ccc(CNCC2CCCCC2)cc1 [Cpd018, N-(2-(5-chloro-1H-indol-3-yl)ethyl)-4-((cyclohexylmethylamino)methyl)benzamide] | 168 nM
18 | O=C(NCCc1c[nH]c2ccc(Cl)cc12)c1cccc(Cc2cccc(Cl)c2)c1 [Cpd055, N-(2-(5-chloro-1H-indol-3-yl)ethyl)-3-(3-chlorobenzyl)benzamide] | 36 nM
19 | O=C(NCCc1c[nH]c2ccc(Cl)cc12)c1ccc(Cc2ccncc2)cc1 [Cpd086, N-(2-(5-chloro-1H-indol-3-yl)ethyl)-4-(pyridin-4-ylmethyl)benzamide] | 151 nM
20 | COc1ccccc1Cc1cccc(C(=O)NCCc2c[nH]c3ccc(Cl)cc23)c1 [Cpd030, N-(2-(5-chloro-1H-indol-3-yl)ethyl)-3-(2-methoxybenzyl)benzamide] | 96 nM
21 | O=C(NCCc1c[nH]c2ccc(Cl)cc12)c1ccc(Cc2cccc(F)c2)cc1F [Cpd099, N-(2-(5-chloro-1H-indol-3-yl)ethyl)-2-fluoro-4-(3-fluorobenzyl)benzamide] | 27 nM

Row | Structure (SMILES) | EC50
22 | O=C(NCCc1c[nH]c2ccc(Cl)cc12)c1ccc(Cc2ccoc2)cc1 [Cpd081, N-(2-(5-chloro-1H-indol-3-yl)ethyl)-4-(furan-3-ylmethyl)benzamide] | 23 nM
23 | O=C(NCCc1c[nH]c2ccc(Cl)cc12)c1cccc(Cc2ccc(F)cc2)c1 [Cpd052, N-(2-(5-chloro-1H-indol-3-yl)ethyl)-3-(4-fluorobenzyl)benzamide] | 20 nM
24 | O=C(NCCc1c[nH]c2ccc(Cl)cc12)c1ccc(Oc2cccc(F)c2)cc1 [Cpd105, N-(2-(5-chloro-1H-indol-3-yl)ethyl)-4-(3-fluorophenoxy)benzamide] | 112 nM
25 | O=C(NCCc1c[nH]c2ccc(Cl)cc12)c1cccc(CNCc2ccccc2)c1 [Cpd023, 3-((benzylamino)methyl)-N-(2-(5-chloro-1H-indol-3-yl)ethyl)benzamide] | 94 nM
26 | Cc1[nH]c2ccc(Cl)cc2c1CCNC(=O)c1ccc(Cc2cccc(F)c2)cc1 [Cpd098, N-(2-(5-chloro-2-methyl-1H-indol-3-yl)ethyl)-4-(3-fluorobenzyl)benzamide] | 535 nM
27 | O=C(NCCc1c[nH]c2ccc(Cl)cc12)c1cccc(Cc2ccsc2)c1 [Cpd076, N-(2-(5-chloro-1H-indol-3-yl)ethyl)-3-(thiophen-3-ylmethyl)benzamide] | 29 nM
28 | N#Cc1ccccc1Cc1ccc(C(=O)NCCc2c[nH]c3ccc(Cl)cc23)cc1 [Cpd059, N-(2-(5-chloro-1H-indol-3-yl)ethyl)-4-(2-cyanobenzyl)benzamide] | 68 nM
29 | Cc1ccccc1Cc1ccc(C(=O)NCCc2c[nH]c3ccc(Cl)cc23)cc1 [Cpd028, N-(2-(5-chloro-1H-indol-3-yl)ethyl)-4-(2-methylbenzyl)benzamide] | 370 nM
30 | Cn1cc(CCNC(=O)c2ccc(Cc3cccc(F)c3)cc2)c2cc(Cl)ccc21 [Cpd091, N-(2-(5-chloro-1-methyl-1H-indol-3-yl)ethyl)-4-(3-fluorobenzyl)benzamide] | 581 nM
31 | N#Cc1cccc(Cc2ccc(C(=O)NCCc3c[nH]c4ccc(Cl)cc34)cc2)c1 [Cpd032, N-(2-(5-chloro-1H-indol-3-yl)ethyl)-4-(3-cyanobenzyl)benzamide] | 14 nM
32 | O=C(NCCc1c[nH]c2ccc(Cl)cc12)c1ccc(Cc2cc(F)cc(F)c2)cc1 [Cpd067, N-(2-(5-chloro-1H-indol-3-yl)ethyl)-4-(3,5-difluorobenzyl)benzamide] | 111 nM
33 | O=C(NCCc1c[nH]c2ccc(Cl)cc12)c1ccc(Cc2cccc(F)c2)cc1 [Cpd048, N-(2-(5-chloro-1H-indol-3-yl)ethyl)-4-(3-fluorobenzyl)benzamide] | 13 nM
34 | O=C(NCCc1c[nH]c2ccc(Cl)cc12)c1ccc(Cc2cccc(Cl)c2)cc1 [Cpd046, N-(2-(5-chloro-1H-indol-3-yl)ethyl)-4-(3-chlorobenzyl)benzamide] | 7 nM
35 | N#Cc1cccc(Nc2cccc(C(=O)NCCc3c[nH]c4ccc(Cl)cc34)c2)c1 [Cpd064, N-(2-(5-chloro-1H-indol-3-yl)ethyl)-3-(3-cyanophenylamino)benzamide] | 122 nM
36 | N#Cc1ccc2[nH]cc(CCNC(=O)c3ccc(Cc4cccc(F)c4)cc3)c2c1 [Cpd115, N-(2-(5-cyano-1H-indol-3-yl)ethyl)-4-(3-fluorobenzyl)benzamide] | 75 nM
37 | O=C(NCc1c[nH]c2ccc(Cl)cc12)c1ccc(Cc2cc(F)cc(F)c2)cc1 [Cpd073, N-((5-chloro-1H-indol-3-yl)methyl)-4-(3,5-difluorobenzyl)benzamide] | 242 nM
38 | Cc1cccc(Cc2ccc(C(=O)NCCc3c[nH]c4ccc(Cl)cc34)cc2)c1 [Cpd036, N-(2-(5-chloro-1H-indol-3-yl)ethyl)-4-(3-methylbenzyl)benzamide] | 40 nM
39 | O=C(NCCc1c[nH]c2ccc(Cl)cc12)c1ccc(Cc2ccco2)cc1 [Cpd087, N-(2-(5-chloro-1H-indol-3-yl)ethyl)-4-(furan-2-ylmethyl)benzamide] | 133 nM
40 | O=C(NCCc1c[nH]c2ccc(N3CCOCC3)cc12)c1ccc(Cc2cccc(F)c2)cc1 [Cpd116, 4-(3-fluorobenzyl)-N-(2-(5-morpholino-1H-indol-3-yl)ethyl)benzamide] | 166 nM
41 | Cc1ccc(Cc2cccc(C(=O)NCCc3c[nH]c4ccc(Cl)cc34)c2)cc1 [Cpd034, N-(2-(5-chloro-1H-indol-3-yl)ethyl)-3-(4-methylbenzyl)benzamide] | 62 nM
42 | O=C(NCCc1c[nH]c2ccc(Cl)cc12)c1ccc(Cc2cccc(F)c2F)cc1 [Cpd103, N-(2-(5-chloro-1H-indol-3-yl)ethyl)-4-(2,3-difluorobenzyl)benzamide] | 139 nM
